According to ChEMBL document CHEMBL1149935, “17-hydroxywortmannin: A potent inhibitor of bone resorption and phosphatidylinositol-3-kinase” (Bioorg Med Chem Lett, 1995):

Experiments:
Gallus gallus = species on record: Gallus gallus; test: Compound was evaluated for inhibitory activity against bone resorption in avian osteoclast
[1] = Inhibition of bovine Phosphatidylinositol 3-kinase; parameters: species or system Bos taurus

SMILES | IC50 (Gallus gallus) | IC50 [1]
COC(=O)c1coc2c(O)c3c(c(C)c12)C=C[C@]1(C)C(=O)CC[C@@H]31 | > 1000 nM | 4600 nM
COC[C@H]1OC(=O)c2coc3c2[C@@]1(C)C1=C(C3=O)[C@@H]2CCC(=O)[C@@]2(C)CC1 | 506 nM | 16.7 nM
COC[C@H]1OC(=O)c2coc3c2[C@@]1(C)C1=CC[C@]2(C)C(=O)CC[C@H]2C1C3=O (stereo partly drawn) |  | 54 nM
COC[C@H]1OC(=O)c2coc3c2[C@@]1(C)C1=C(C3=O)[C@@H]2CC[C@H](O)[C@@]2(C)C[C@H]1OC(C)=O | 10 nM | 0.5 nM
COC[C@H]1OC(=O)c2c(C)oc3c2[C@@]1(C)C1=C(C3=O)[C@@H]2CCC(=O)[C@@]2(C)C[C@H]1OC(C)=O | > 1000 nM | > 500 nM
Cc1c2c(c(O)c3occ(C(=O)O)c13)C1CCC(=O)[C@@]1(C)C=C2 (stereo partly drawn) | > 1000 nM | > 32000 nM
COC[C@H]1OC(=O)c2coc3c2[C@@]1(C)C1=C(C3=O)C2CCC(O)[C@@]2(C)CC1 (stereo partly drawn) | 103 nM | 
NCCCC(O)(P(=O)(O)O)P(=O)(O)O [ALENDRONIC ACID] | 100 nM | > 50000 nM
CC(O)(P(=O)(O)O)P(=O)(O)O [ETIDRONIC ACID] | 100000 nM | > 50000 nM
COC[C@H]1OC(=O)c2coc3c2[C@@]1(C)C1=C(C3=O)[C@@H]2CCC(=O)[C@@]2(C)C[C@H]1OC(C)=O [WORTMANNIN] | 98 nM | 4.2 nM
